Inconclusive results and toxic doses are left out.
System: L1210 leukemia ip in BDF1 mice, survival T/C
Assay: NCI In Vivo Anticancer Drug Screen. Data for tumor model L1210 Leukemia (intraperitoneal) in B6D2F1 (BDF1) mice
Details: endpoint: mean survival time, higher = longer survival
Summary of the method: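 Value reflects the ratio of survival in compound-treated mice to survival in vehicle-treated controls, with both groups carrying the same transplanted tumor.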

[1] = dose: 100.0 mg/kg/injection, schedule: Q01DX001 (ip), vehicle: saline
[2] = dose: 200.0 mg/kg/injection, schedule: Q01DX001 (ip), vehicle: saline
[3] = dose: 400.0 mg/kg/injection, schedule: Q01DX001 (ip), vehicle: saline

Row | SMILES | T/C [1] | T/C [2] | T/C [3] | other results
1 | CC(C)=CCc1c2c(c3occ(-c4ccc(O)c(O)c4)c(=O)c3c1O)C=CC(C)(C)O2 | – | – | – | T/C (dose: 50.0 mg/kg/injection, schedule: Q04DX003 (ip), vehicle: Klucel (hydroxypropylcellulose) (HPC)): 93 % of control; T/C (dose: 100.0 mg/kg/injection, schedule: Q04DX003 (ip), vehicle: Klucel (hydroxypropylcellulose) (HPC)): 100 % of control; T/C (dose: 200.0 mg/kg/injection, schedule: Q04DX003 (ip), vehicle: Klucel (hydroxypropylcellulose) (HPC)): 104 % of control
2 | CC1(O)CCCCC1 | 102 % of control | 104 % of control | 96 % of control | –
3 | N#CC1(C(N)=O)OC1c1ccccc1Cl (stereo unspecified) | – | – | – | T/C (dose: 100.0 mg/kg/injection, schedule: Q04DX003 (ip), vehicle: carboxymethylcellulose (CMC)): 97 % of control; T/C (dose: 200.0 mg/kg/injection, schedule: Q04DX003 (ip), vehicle: carboxymethylcellulose (CMC)): 98 % of control
4 | O=C(N/N=C/c1ccc([N+](=O)[O-])cc1)c1cccc2ccccc12 | 97 % of control | 89 % of control | 89 % of control | –

— PubChem BioAssay AID248 (DTP/NCI, 2004)
